# Source: patent US11903994B2, “Dosing regimens” (Apellis Pharmaceuticals, Inc., priority 2015, dated 2024)
# Non-standard residues stand in square brackets, D forms with d. Trp(5-F) = N[C@@H](Cc1c[nH]c2ccc(F)cc12)C(=O)O; Trp(6-F) = N[C@@H](Cc1c[nH]c2cc(F)ccc12)C(=O)O; Bpa = N[C@@H](Cc1ccc(C(=O)c2ccccc2)cc1)C(=O)O; 1Nal = N[C@@H](Cc1cccc2ccccc12)C(=O)O; 2Nal = N[C@@H](Cc1ccc2ccccc2c1)C(=O)O; Igl = N[C@H](C(=O)O)C1Cc2ccccc2C1
# Assays:
# [1] = Inhalation studies, single and repeated dosing; type: in vivo, cynomolgus monkey; conditions: inhaled CA28
# Method: (§1) Inhalation studies of single dose or repeated dosing were conducted in dog and cynomolgus monkey. […] These doses were 25 mg/kg/d in a 7 day repeated dose study in the dog, 80 mg/kg in a single dose study in the monkey, and 30 mg/kg/day in a 14 day repeated dose in the monkey.
# [2] = Inhalation study, repeated dosing; type: in vivo, dog; conditions: 25 mg/kg/d, 7 day repeated dose, inhaled CA28
# Method: as §1
# [3] = Phase 1 single and multiple ascending dose trial, inhaled (nebulized), healthy volunteers; type: in vivo, human
# Method: In the single ascending dose part of the trial, 16 subjects were enrolled in four cohorts of four subjects each.
# Four subjects were enrolled in the first cohort of the multiple ascending dose part of the trial. These subjects were to receive 14 consecutive days of treatment with a 60 mg/day dose of the drug. […] The trial was paused and subsequently resumed, with subjects receiving 30 mg/day. […] The trial was then terminated.
# complement activation = conditions: relative to compstatin amidated at the C-terminus; published data; cited from earlier work
Compound,Activity over compstatin (complement activation) [xmore],further results
CC[C@H](C)[C@H](NC(C)=O)C(=O)N[C@H]1CSSC[C@@H](C(=O)N[C@H](C(N)=O)[C@@H](C)O)NC(=O)[C@H](CCCNC(=N)N)NC(=O)[C@H](Cc2cnc[nH]2)NC(=O)[C@H](C)NC(=O)CNC(=O)[C@H](Cc2c[nH]c3ccccc23)NC(=O)[C@H](CC(=O)O)NC(=O)[C@H](CCC(N)=O)NC(=O)[C@H](Cc2cn(C)c3ccccc23)NC(=O)[C@H](C(C)C)NC1=O [CA28],–,"findings at the highest inhaled dose tested ([1]; 30 mg/kg/day, 14 day repeated dose): no drug-related findings; findings at the highest inhaled dose tested ([1]; 80 mg/kg, single dose): no drug-related findings; findings at the highest inhaled dose tested [2]: no drug-related findings; adverse event possibly related to the pharmacology of the drug ([3]; inhaled CA28 30 mg/day, after 10 days of treatment): Another subject developed signs and symptoms consistent with a potential bacterial infection; adverse event possibly related to the pharmacology of the drug ([3]; inhaled CA28 60 mg/day, following nine days of treatment): one subject developed signs and symptoms consistent with a potential bacterial infection"
Ac-ICV(1-Nal)QDWGAHRCT-COOH (Ac-ICV[1Nal]QDWGAHRCT-OH; not fully specified (bridges); printed as Ac-ICV(1-Nal)QDWGAHRCT-COOH; cysteine pairing not given here) [Ac V4(1-Nal)/H9A-OH],30,–
Ac-ICV(2-Nal)QDWGAHRCT-CONH2 (Ac-ICV[2Nal]QDWGAHRCT-NH2; not fully specified (bridges); printed as Ac-ICV(2-Nal)QDWGAHRCT-CONH2; cysteine pairing not given here) [Ac-V4(2-Nal)/H9A],99,–
Ac-ICV(2-Nal)QDWGAHRCT-COOH (Ac-ICV[2Nal]QDWGAHRCT-OH; not fully specified (bridges); printed as Ac-ICV(2-Nal)QDWGAHRCT-COOH; cysteine pairing not given here) [Ac V4(2-Nal)/H9A-OH],38,–
Ac-ICV(2-lgl)QDWGAHRCT-CONH2 (Ac-ICV[Igl]QDWGAHRCT-NH2; not fully specified (bridges); printed as Ac-ICV(2-lgl)QDWGAHRCT-CONH2; cysteine pairing not given here) [Ac-V42lgl/H9A],39,–
Ac-ICV(2-lgl)QDWGAHRCT-COOH (Ac-ICV[Igl]QDWGAHRCT-OH; not fully specified (bridges); printed as Ac-ICV(2-lgl)QDWGAHRCT-COOH; cysteine pairing not given here) [Ac-V42lgl/H9A-OH],37,–
Ac-ICV(5-methyl-W)QDWGAHRCT-CONH2 [Ac-V4(5-MeW)/H9A],67,–
Ac-ICV(5fW)QDWGAHRCT-CONH2 [Ac-V4(5fW)/H9A],31,–
Ac-ICV(Bpa)QDWGAHRCT-CONH2 (Ac-ICV[Bpa]QDWGAHRCT-NH2; not fully specified (bridges); printed as Ac-ICV(Bpa)QDWGAHRCT-CONH2; cysteine pairing not given here) [Ac-V4(Bpa)/H9A],86,–
Ac-ICV(Bpa)QDWGAHRCT-COOH (Ac-ICV[Bpa]QDWGAHRCT-OH; not fully specified (bridges); printed as Ac-ICV(Bpa)QDWGAHRCT-COOH; cysteine pairing not given here) [Ac-V4(Bpa)/H9A-OH],49,–
Ac-ICVDhtQDWGAHRCT-COOH [Ac-V4Dht/H9A-OH],5,–
Ac-ICVVQDWGHHRCT-CONH2 [Ac-compstatin],3,–
Ac-ICVWQD(5fW)GAHRCT-CONH2 [Ac-V4W/W7(5fW)/H9A],121,–
Ac-ICVWQDWGAHRCT-CONH2 [Ac-V4W/H9A],45,–
Ac-ICVWQDWGAHRCdT-COOH [Ac-V4W/H9A/T13dT-OH],55,–
Ac-ICVYQDWGAHRCT-CONH2 [Ac-V4Y/H9A],14,–
H-GICV(5fW)QD(5fW)GAHRCTN-COOH (H-GICV[Trp(5-F)]QD[Trp(5-F)]GAHRCTN-OH; not fully specified (bridges); cysteine pairing not given here) [G/V4(5f-W)/W7(5fW)/H9A + N-OH],112,–
H-GICV(6fW)QD(6fW)GAHRCTN-COOH (H-GICV[Trp(6-F)]QD[Trp(6-F)]GAHRCTN-OH; not fully specified (bridges); cysteine pairing not given here) [+G/V4(6fW)/W7(6fW)H9A + N-OH],126,–
